The values that follow are results of earlier work, collected in US20030077328A1, “Method and composition for inhibiting post-surgical adhesions” (priority 1995, published 2003).

Each structure is given as a SMILES string.

This data set relates to post-traumatic adhesion formation. The note with it: hamster; 0.1 to 10 mg/kg subcutaneously at 12-hour intervals.

Turning to `CC(=O)CCCCn1c(=O)c2c(ncn2C)n(C)c1=O` [pentoxifylline], the “protection against post-traumatic adhesion formation” value was “provide protection against post-traumatic adhesion formation”.
